Data: the NIST ThermoML archive (doi:10.1016/j.jct.2015.11.023)

How the values were obtained:
[1] = wn = mass fraction of the nth substance listed; conditions: for surface tension liquid-gas: Maximal bubble pressure; for mass density: 100 kPa, Liquid, Vibrating tube method
[2] = refractive index (Na D-line) (dimensionless); wn = mass fraction of the nth substance listed; conditions: 100 kPa, Liquid, Standard Abbe refractometry

CCC[n+]1ccccc1.N#C[N-]C#N [1-propylpyridinium dicyanamide] + O
Conditions | mass density [kg/m3] | refractive index | surface tension liquid-gas [mN/m]
[1], 303.15 K, w2 = 0.00121 | 1086.72 | – | –
[1], 303.15 K, w2 = 0.00205 | – | – | 58.1
[1], 303.15 K, w2 = 0.00271 | 1086.48 | – | –
[1], 303.15 K, w2 = 0.0035 | – | – | 58.4
[1], 303.15 K, w2 = 0.00412 | 1086.25 | – | –
[1], 303.15 K, w2 = 0.005 | – | – | 58.7
[1], 303.15 K, w2 = 0.00573 | 1085.98 | – | –
[1], 303.15 K, w2 = 0.00649 | – | – | 59
[1], 303.15 K, w2 = 0.00724 | 1085.74 | – | –
[1], 303.15 K, w2 = 0.00802 | – | – | 59.3
[1], 308.15 K, w2 = 0.00121 | 1083.57 | – | –
[1], 308.15 K, w2 = 0.00205 | – | – | 57.8
[1], 308.15 K, w2 = 0.00271 | 1083.3 | – | –
[1], 308.15 K, w2 = 0.0035 | – | – | 58.1
[1], 308.15 K, w2 = 0.00412 | 1083.06 | – | –
[1], 308.15 K, w2 = 0.005 | – | – | 58.4
[1], 308.15 K, w2 = 0.00573 | 1082.77 | – | –
[1], 308.15 K, w2 = 0.00649 | – | – | 58.7
[1], 308.15 K, w2 = 0.00724 | 1082.49 | – | –
[1], 308.15 K, w2 = 0.00802 | – | – | 59
[1], 313.15 K, w2 = 0.00121 | 1080.46 | – | –
[1], 313.15 K, w2 = 0.00205 | – | – | 57.4
[1], 313.15 K, w2 = 0.00271 | 1080.2 | – | –
[1], 313.15 K, w2 = 0.0035 | – | – | 57.8
[1], 313.15 K, w2 = 0.00412 | 1079.95 | – | –
[1], 313.15 K, w2 = 0.005 | – | – | 58.1
[1], 313.15 K, w2 = 0.00573 | 1079.65 | – | –
[1], 313.15 K, w2 = 0.00649 | – | – | 58.4
[1], 313.15 K, w2 = 0.00724 | 1079.36 | – | –
[1], 313.15 K, w2 = 0.00802 | – | – | 58.7
[1], 318.15 K, w2 = 0.00121 | 1077.36 | – | –
[1], 318.15 K, w2 = 0.00205 | – | – | 57.1
[1], 318.15 K, w2 = 0.00271 | 1077.12 | – | –
[1], 318.15 K, w2 = 0.0035 | – | – | 57.5
[1], 318.15 K, w2 = 0.00412 | 1076.87 | – | –
[1], 318.15 K, w2 = 0.005 | – | – | 57.8
[1], 318.15 K, w2 = 0.00573 | 1076.55 | – | –
[1], 318.15 K, w2 = 0.00649 | – | – | 58.1
[1], 318.15 K, w2 = 0.00724 | 1076.27 | – | –
[1], 318.15 K, w2 = 0.00802 | – | – | 58.4
[1], 323.15 K, w2 = 0.00121 | 1074.29 | – | –
[1], 323.15 K, w2 = 0.00205 | – | – | 56.9
[1], 323.15 K, w2 = 0.00271 | 1074.02 | – | –
[1], 323.15 K, w2 = 0.0035 | – | – | 57.2
[1], 323.15 K, w2 = 0.00412 | 1073.79 | – | –
[1], 323.15 K, w2 = 0.005 | – | – | 57.5
[1], 323.15 K, w2 = 0.00573 | 1073.46 | – | –
[1], 323.15 K, w2 = 0.00649 | – | – | 57.8
[1], 323.15 K, w2 = 0.00724 | 1073.19 | – | –
[1], 323.15 K, w2 = 0.00802 | – | – | 58.2
[1], 328.15 K, w2 = 0.00121 | 1071.24 | – | –
[1], 328.15 K, w2 = 0.00205 | – | – | 56.5
[1], 328.15 K, w2 = 0.00271 | 1070.97 | – | –
[1], 328.15 K, w2 = 0.0035 | – | – | 56.8
[1], 328.15 K, w2 = 0.00412 | 1070.72 | – | –
[1], 328.15 K, w2 = 0.005 | – | – | 57.2
[1], 328.15 K, w2 = 0.00573 | 1070.41 | – | –
[1], 328.15 K, w2 = 0.00649 | – | – | 57.5
[1], 328.15 K, w2 = 0.00724 | 1070.15 | – | –
[1], 328.15 K, w2 = 0.00802 | – | – | 57.8
[1], 333.15 K, w2 = 0.00121 | 1068.17 | – | –
[1], 333.15 K, w2 = 0.00205 | – | – | 56.2
[1], 333.15 K, w2 = 0.00271 | 1067.92 | – | –
[1], 333.15 K, w2 = 0.0035 | – | – | 56.5
[1], 333.15 K, w2 = 0.00412 | 1067.67 | – | –
[1], 333.15 K, w2 = 0.005 | – | – | 56.9
[1], 333.15 K, w2 = 0.00573 | 1067.34 | – | –
[1], 333.15 K, w2 = 0.00649 | – | – | 57.2
[1], 333.15 K, w2 = 0.00724 | 1067.04 | – | –
[1], 333.15 K, w2 = 0.00802 | – | – | 57.6
[1], 338.15 K, w2 = 0.00121 | 1065.15 | – | –
[1], 338.15 K, w2 = 0.00205 | – | – | 55.8
[1], 338.15 K, w2 = 0.00271 | 1064.88 | – | –
[1], 338.15 K, w2 = 0.0035 | – | – | 56.1
[1], 338.15 K, w2 = 0.00412 | 1064.64 | – | –
[1], 338.15 K, w2 = 0.005 | – | – | 56.5
[1], 338.15 K, w2 = 0.00573 | 1064.3 | – | –
[1], 338.15 K, w2 = 0.00649 | – | – | 56.8
[1], 338.15 K, w2 = 0.00724 | 1063.99 | – | –
[1], 338.15 K, w2 = 0.00802 | – | – | 57.1
[2], 303.15 K, w2 = 0.00205 | – | 1.5386 | –
[2], 303.15 K, w2 = 0.00353 | – | 1.5384 | –
[2], 303.15 K, w2 = 0.00496 | – | 1.5381 | –
[2], 303.15 K, w2 = 0.00639 | – | 1.5378 | –
[2], 303.15 K, w2 = 0.0079 | – | 1.5375 | –
[2], 308.15 K, w2 = 0.00205 | – | 1.537 | –
[2], 308.15 K, w2 = 0.00353 | – | 1.5368 | –
[2], 308.15 K, w2 = 0.00496 | – | 1.5365 | –
[2], 308.15 K, w2 = 0.00639 | – | 1.5362 | –
[2], 308.15 K, w2 = 0.0079 | – | 1.5359 | –
[2], 313.15 K, w2 = 0.00205 | – | 1.5352 | –
[2], 313.15 K, w2 = 0.00353 | – | 1.5349 | –
[2], 313.15 K, w2 = 0.00496 | – | 1.5347 | –
[2], 313.15 K, w2 = 0.00639 | – | 1.5344 | –
[2], 313.15 K, w2 = 0.0079 | – | 1.5341 | –
[2], 318.15 K, w2 = 0.00205 | – | 1.5338 | –
[2], 318.15 K, w2 = 0.00353 | – | 1.5335 | –
[2], 318.15 K, w2 = 0.00496 | – | 1.5332 | –
[2], 318.15 K, w2 = 0.00639 | – | 1.5329 | –
[2], 318.15 K, w2 = 0.0079 | – | 1.5327 | –
[2], 323.15 K, w2 = 0.00205 | – | 1.5325 | –
[2], 323.15 K, w2 = 0.00353 | – | 1.5322 | –
[2], 323.15 K, w2 = 0.00496 | – | 1.5319 | –
[2], 323.15 K, w2 = 0.00639 | – | 1.5316 | –
[2], 323.15 K, w2 = 0.0079 | – | 1.5313 | –
[2], 328.15 K, w2 = 0.00205 | – | 1.5308 | –
[2], 328.15 K, w2 = 0.00353 | – | 1.5306 | –
[2], 328.15 K, w2 = 0.00496 | – | 1.5303 | –
[2], 328.15 K, w2 = 0.00639 | – | 1.5301 | –
[2], 328.15 K, w2 = 0.0079 | – | 1.5298 | –
[2], 333.15 K, w2 = 0.00205 | – | 1.529 | –
[2], 333.15 K, w2 = 0.00353 | – | 1.5288 | –
[2], 333.15 K, w2 = 0.00496 | – | 1.5286 | –
[2], 333.15 K, w2 = 0.00639 | – | 1.5283 | –
[2], 333.15 K, w2 = 0.0079 | – | 1.5281 | –
[2], 338.15 K, w2 = 0.00205 | – | 1.5273 | –
[2], 338.15 K, w2 = 0.00353 | – | 1.527 | –
[2], 338.15 K, w2 = 0.00496 | – | 1.5268 | –
[2], 338.15 K, w2 = 0.00639 | – | 1.5265 | –
[2], 338.15 K, w2 = 0.0079 | – | 1.5263 | –
